Reference: PMC3485206, “Integrative Binding Sites within Intracellular Termini of TRPV1 Receptor” (PLoS ONE, 2012)
“Also recorded” adds a separate entry of the source.

B1: K770A/R778A/R785A: triple alanine mutant of TRPV1-CT (712–838) thioredoxin fusion protein (protein, UniProt O35433 712-838, looked up, variant K770A R778A R785A)
chain: FLKCMRKAFRSGKLLQVGFTPDGKDDYRWCFRVDEVNWTTWNTNVGIINEDPGNCEGVARTLSFSLASGRVSGANWKNFALVPLLRDASTRDRHATQQEEVQLKHYTGSLKPEDAEVFKDSMVPGEK
modifications: thioredoxin fusion, His tag
notes: triple alanine mutant of TRPV1-CT (712–838) thioredoxin fusion protein
B2: K770A/R781A/R785A: triple alanine mutant of TRPV1-CT (712–838) thioredoxin fusion protein (protein, UniProt O35433 712-838, looked up, variant K770A R781A R785A)
chain: FLKCMRKAFRSGKLLQVGFTPDGKDDYRWCFRVDEVNWTTWNTNVGIINEDPGNCEGVARTLSFSLRSGAVSGANWKNFALVPLLRDASTRDRHATQQEEVQLKHYTGSLKPEDAEVFKDSMVPGEK
modifications: thioredoxin fusion, His tag
notes: as for B1

Key:
[1] = Surface plasmon resonance, binding to PC/PIP2 liposomes on sensor chip; settings: for Kd: SPR equilibrium binding, PC/PIP2 (20∶1) liposomes, 25°C, HBSS, read-out: equilibrium dissociation constant KD; for binding to PIP2 containing liposomes (in words): SPR, PC/PIP2 liposomes
Procedure: All SPR measurements were performed at 25°C using a liposome-coated NLC chip in aProteOn XPR36 Protein Interaction Array System (Bio-rad, Hercules, CA, USA). […] Lipid solution (10 mg/ml) in HBSS was mixed with 8 µM oligonucleotide 5′-[…]-3′, modified at the 3′ end with cholesterol (Generi-Biotech, Hradec Kralove, Czech Republic), and the mixture was extruded using a LiposoFast Basic apparatus (Avestin Europe, Mannheim, Germany) with a polycarbonate membrane with a 100-nm pore diameter (Avestin Europe, Mannheim, Germany). The lipid/DNA ratio was 1200∶1. The vesicles were then incubated with 8 µM anti-sense oligonucleotide 5′-[…]-3′, modified at the 5′ end with biotin (Generi-Biotech, Hradec Kralove, Czech Republic), and washed by centrifugation (50,000 g) for 30 min at 4°C. The vesicles were diluted to a final concentration of 1 mg/ml in HBSS and immobilized on the streptavidin-coated NLC chip (Bio-rad, Hercules, CA, USA) surface at a flow rate of 25 µl/min for 10 min to give ∼800 −1500 resonance units (RU). All SPR measurements were carried out in HBSS at a flow rate of 30 µl/min for both the association and dissociation phase of the sensograms. For determining equilibrium binding, the association phases of five different concentrations of each protein were brought to near-equilibrium values (Req). Surfaces were typically regenerated with 50 µl of 1 M NaCl and 20 mM glycin buffer, pH 3.5. The sensograms were corrected for sensor background by interspot referencing (the sites within the 6×6 array which are not exposed to ligand immobilization but are exposed to analyte flow), and double referenced by subtraction of the analyte using a “blank” injection. Assuming a Langmuir-type binding between the protein (P) and protein binding sites (S) on vesicles (i.e. P + S ↔ PS), Req values were then plotted versus protein concentration (P0), and the KD value was determined by nonlinear least-squares analysis of the binding isotherm using the equation Req = Rmax/(1+KD/P0).

CaM = test system: CaM; parameters: method as in PMID 18755153; settings: TRPV1-CT fusion protein mutants; cited from earlier work
[2] = Steady state fluorescence anisotropy binding assay with PIP2-Bodipy; settings: for Kd: PIP2-Bodipy 10 nM titrated with protein or peptide, room temperature, read-out: equilibrium dissociation constant KD
Procedure: (§1) Peptides were dissolved in 50 mM Tris-HCl (pH 7.5), 100 mM NaCl buffer and were used for measurements of fluorescence anisotropy. Steady-state fluorescence anisotropy measurements were performed in an ISS Photon Counting Steady-State Spectrofluorimeter (ISS PC1TM) at room temperature with a PIP2-Bodipy® FL C5, C6-PtdIns(4,5)P2 molecular probe (Invitrogen, cat. n. B22627, Figure S3A), hereafter denoted as PIP2-Bodipy and the control experiment was done with 16∶0-06∶0 NBD PC 1-palmitoyl-2-{6-[(7-nitro-2-1,3-benzoxadiazol-4-yl)amino]hexanoyl}-sn-glycero-3-phosphocholine in chloroform (NBD-PC), (Avanti Polar Lipids, Inc. Cat. n. 810130C, Figure S3B) The PIP2-Bodipy probe was diluted in deionized H2O. The final concentration of the fluorescently labeled probe in the measuring buffer in the cuvette was 10 nM and increasing amounts of peptides and fusion protein TRPV1 respectively were titrated into the cuvette. PIP2-Bodipy excitation and emission wavelengths were set to 500 nm and 512 nm and for NBD – PC 460 nm and 534 nm respectively. At each peptide concentration, steady-state fluorescence anisotropy was recorded. The fraction of TRPV1s regions or their mutants bound to fluorescent probe was determined from the anisotropy changes using Eq. (1), where FB is the fraction bound, rmin and rmax are the anisotropies of the free and bound PIP2-Bodipy with TRPV1-CT, pTRPV1 regions or its mutants, robs is the observed anisotropy, and Q is the ratio of the intensities of the free and bound protein (fmax/fmin). All experiments were carried out in at least triplicate. [drawing 1] (1)
The FB was plotted against the TRPV1 peptides and fusion proteins concentration respectively and fitted using Eq. (2) to determine the equilibrium dissociation constant (KD). Non-linear data fitting was performed using the package SigmaPlot 2000 (6.1) SPSS Inc. P1 is the concentration of PIP2-Bodipy and P2 is the concentration of TRPV1 fusion protein or TRPPV1 synthetic peptides. [drawing 2] (2)

[3] = Control steady-state fluorescence anisotropy with NBD-PC; assay type: binding; settings: NBD-PC 10 nM
Procedure: as §1, with “PIP2-Bodipy excitation and emission wavelengths were set to 500 nm and 512 nm and for NBD – PC 460 nm and 534 nm respectively.” left out, “All experiments were carried out in at least triplicate. [drawing 1] (1)” left out

[4] = Control SPR with liposomes containing only phosphatidylcholine; assay type: binding; settings: liposomes not containing PIP2
Procedure: All SPR measurements were performed at 25°C using a liposome-coated NLC chip in aProteOn XPR36 Protein Interaction Array System (Bio-rad, Hercules, CA, USA). Liposomes (100 nm in diameter) were made from 1,2-dimyristoyl-sn-glycero-3-phosphocholine (PC) and L-α-phosphatidylinositol-4,5-bisphosphate (PIP2) (Avanti Lipids, Alabaster, AL, USA) at a molar ratio of 20∶1 (PC/PIP2). Lipid solution (10 mg/ml) in HBSS was mixed with 8 µM oligonucleotide 5′-[…]-3′, modified at the 3′ end with cholesterol (Generi-Biotech, Hradec Kralove, Czech Republic), and the mixture was extruded using a LiposoFast Basic apparatus (Avestin Europe, Mannheim, Germany) with a polycarbonate membrane with a 100-nm pore diameter (Avestin Europe, Mannheim, Germany). The lipid/DNA ratio was 1200∶1. The vesicles were then incubated with 8 µM anti-sense oligonucleotide 5′-[…]-3′, modified at the 5′ end with biotin (Generi-Biotech, Hradec Kralove, Czech Republic), and washed by centrifugation (50,000 g) for 30 min at 4°C. […] Assuming a Langmuir-type binding between the protein (P) and protein binding sites (S) on vesicles (i.e. P + S ↔ PS), Req values were then plotted versus protein concentration (P0), and the KD value was determined by nonlinear least-squares analysis of the binding isotherm using the equation Req = Rmax/(1+KD/P0).

[5] = ELISA, influence of liposome composition on binding to immobilized TRPV1-CT; settings: liposomes of different composition
Procedure: The lipids L-α-phosphatidylinositol-4,5-bisphosphate (PIP2), 1,2-dimyristoyl-sn-glycero-3- Phosphatidylserine (PS), 1,2-dimyristoyl-sn-glycero-3-phosphocholine (PC) and 1,2-dimyristoyl-sn-glycero-3- Phosphatidylethanolamine (PE) were obtained from Avanti Polar Lipis, Inc. A stock solution of each lipid was prepared in chloroform, except for PIP2 stock solution, which was prepared in a chloroform:methanol (2∶1) mixture. Liposomes of the following compositions were prepared: PC, PC/PIP2 97/3%, PC/PIP2 90/10%, PC/PIP2/PS 70/10/20%, PC/PIP2/PS/PE 40/10/20/30%, PC/PIP2/PE 70/10/20%, PC/PIP2/PE 77/3/20%, PC/PE/PS 50/30/20% by mixing appropriate volumes of the stock solutions. After being dried under an N2 stream, lipid films were hydrated with 1× HBSS buffer containing 8 µM oligonucleotide 5′-[…]-3′, modified at the 3′ end with cholesterol (Generi-Biotech, Hradec Kralove, Czech Republic)- followed by extrusion 20 times through a polycarbonate membrane with a 100-nm pore diameter (Avestin Europe, Mannheim, Germany). Finally 8 µM complementary oligonucleotide Biotin conjugate 5′-[…]-3′ (Generi-Biotech, Hradec Kralove, Czech Republic) was added to the liposome mixture. A 20-min incubation was followed by centrifugation and washing steps to remove the unbound oligonucleotide-Biotin conjugate.
96-well micro titer plates were used. […] Absorbance was read at 490 nm using a micro plate reader.

Molecule	Kd [1] [µM]	binding to PIP2 containing liposomes (in words) [1]	other results
K770A/R785A: double alanine mutant of TRPV1-CT (712–838) thioredoxin fusion protein	5.8 ± 0.8	suppressed this interaction partially	
R778A: single alanine mutant of TRPV1-CT (712–838) thioredoxin fusion protein	> 150	total loss of binding affinity; also recorded: inhibited the PIP2 binding	CaM binding (in words) (CaM): did not prevent CaM binding
thioredoxin: fusion tag protein titrated alone as control [reference compound]			binding to PIP2-Bodipy (in words) ([2]; PIP2-Bodipy 10 nM): no thioredoxin–PIP2 binding
R771A: single alanine mutant of TRPV1-CT (712–838) thioredoxin fusion protein		preserves its binding ability to PIP2	CaM binding (in words) (CaM): significantly inhibits the CaM binding
R781A: single alanine mutant of TRPV1-CT (712–838) thioredoxin fusion protein	9.1 ± 3.8		
TRPV1-CT: rat TRPV1 C-tail amino acids 712–838 expressed in E. coli as fusion protein with thioredoxin and 6× His tags	3 ± 0.4		interaction with NBD PC (in words) [3]: no interaction; Kd ([2]; listed as WT TRPV1-CT): 3.5 ± 0.9 µM; Kd [2]: 3.48 µM; interaction with liposomes containing only PC (in words) [4]: just a weak interaction was detected; SPR binding response ([1]; protein washed over PC/PIP2 liposome chip after regeneration step): approx. 1000 RU; selectivity for PIP2 over other lipids (in words) [5]: modest selectivity for PIP2 over other used lipids
R771A/R778A: double alanine mutant of TRPV1-CT (712–838) thioredoxin fusion protein	> 150	total loss of binding affinity; also recorded: avoided PIP2 binding totally	
R771A/R781A: double alanine mutant of TRPV1-CT (712–838) thioredoxin fusion protein	33.5 ± 11.7	suppressed this interaction partially	
B1	> 150	total loss of binding affinity; also recorded: avoided PIP2 binding totally	
B2	3.6 ± 0.5		
